Measured values from PMC8373983, “Effect of salinity on the zinc(II) binding efficiency of siderophore functional groups and implications for salinity tolerance mechanisms in barley” (Scientific Reports, 2021).
Where two headings read alike, the source gives them in different places.

Legend:
[1] = Zinc(II)-ligand stability constants, potentiometric titration in NaCl; type: binding
Description: (§1) Potentiometric measurements were carried out at T = 298.1 ± 0.1 K in thermostatted cells. The setup consisted of a Metrohm model 888 Titrando apparatus controlled by Metrohm TiAMO 1.2 software equipped with a combined gel electrode (VWR model 662 1759). Estimated precision was 0.2 mV and 0.003 ml for the electromotive force and titrant volume readings, respectively. All the potentiometric titrations were carried out under magnetic stirring and bubbling purified presaturated N2 through the solution to exclude O2 and CO2.
(§2) A 30 ml solution containing each ligand ([L] = 5 – 10 mM), NaCl and HCl was titrated with standard NaOH solutions. For the zinc(II)/ligand systems, the titrant solutions consisted of different amounts of ligand ([L] = 5 − 10 mM), zinc(II) ([Zn] = 0.5—5 mM) and a suitable amount of HCl and NaCl. All the measurements were carried out with an excess of the ligand, with respect to zinc(II) and at different zinc(II):ligand molar ratios. The selection of ratios investigated was determined by simulating titrations using Hyperquad Simulation and Speciation computer software (HySS)[41]. [Zn] and [L] were negligible compared to the background electrolyte concentrations. […] To account for the influence of zinc(II) hydrolysis in the zinc(II)/ligand systems, zinc(II) titrations were carried out separately at each ionic strength to determine the hydroxide constants so that these constants could be included in the equilibrium model used to refine the titration data. In these titrations, the zinc(II) concentration in the analyte solution was 0.7 mM.
(§3) Before each experiment, independent titrations of strong acid solutions with standard base were carried out under the same medium and ionic strength conditions as the systems to be investigated, with the aim of determining the electrode potential (E^0’) using GLEE software. In this way, the pH scale used was the […], pH = -log [H]^+, where [H]^+ is the free proton concentration. For each titration, approximately 80 to 100 data points were collected. The equilibrium state during titrations was checked by confirming the time required to reach equilibrium.
(§4) The software program Hyperquad was used to determine the equilibrium model and to calculate pKa and stability constants from the potentiometric data set[43]. For each set of pKa constants or zinc(II):ligand ratio studied, at least two repeat titrations were performed. The titration curves for each system were treated as a single set when refining the stability constants. This meant that the refinement procedure was run on both curves at the same time to derive a single set of constants. The error reported on the stability constants is the standard deviation given in the Hyperquad output file. Examples of Hyperquad files for the zinc(II)/PYR system are provided on the Zenodo repository (https://doi.org/10.5281/zenodo.4641710).
(§5) The ionic strength dependence of the stability constants was studied with the modified version of the Extended Debye–Hückel equation[28]. The Monte Carlo method, as described by Hu et al.[43], was used to estimate 95% confidence intervals on the parameters of ionic strength dependence; for each species, predicted stability constants were resampled using an inverse of the cumulative normal distribution function to give sets of simulated data from which the unknown parameters were optimized. An example Excel calculation file for the application of the modified version of the Extended Debye–Hückel equation to the zinc(II)/PYR system (including the calculation of error on parameters of ionic strength dependence) has been uploaded to the Zenodo repository (https://doi.org/10.5281/zenodo.4641710).
(§6) To quantify the improvement of using a direct vs. indirect method for studying ionic strength dependence, the Davies equation (Eq. 3) was applied to the zinc(II)/PYR data. Speciation calculations for a [Zn] = 10^–6 M and [L] = 10^–5 M system at infinite dilution were conducted with the aid of HySS. […]

[2] = Ligand protonation constants, potentiometric titration in NaCl; type: physicochemical; conditions: T = 298.1 K
Description: as §1, §2, §3, §4, §5, §6

[3] = cited from earlier work
[4] = design: method as in earlier work; conditions: cited from earlier work
[5] = parameter of ionic strength dependence, NaCl
[6] = parameter of ionic strength dependence

CC(=O)NO [AHA, acetohydroxamic acid]
log β, Zn2+ + 2L = ZnL2 ([1]; 0.05 M NaCl, T = 298.1 K): 9.60±0.01
log β, Zn2+ + 2OH- + L- = ZnOH2L- ([1]; 0.05 M NaCl, T = 298.1 K): -13.60±0.04
log β, Zn2+ + L = ZnL (1:1) ([1]; 0.05 M NaCl, T = 298.1 K): 5.32±0.01
log β, Zn2+ + OH- + L- = ZnOHL ([1]; 0.05 M NaCl, T = 298.1 K): -3.22±0.04
log β, Zn2+ + 2L = ZnL2 ([1]; 0.15 M NaCl, T = 298.1 K): 9.16±0.01
log β, Zn2+ + 2OH- + L- = ZnOH2L- ([1]; 0.15 M NaCl, T = 298.1 K): -13.65±0.01
log β, Zn2+ + L = ZnL (1:1) ([1]; 0.15 M NaCl, T = 298.1 K): 5.10±0.01
log β, Zn2+ + OH- + L- = ZnOHL ([1]; 0.15 M NaCl, T = 298.1 K): -3.64±0.02
log β, Zn2+ + 2L = ZnL2 ([1]; 0.30 M NaCl, T = 298.1 K): 9.11±0.01
log β, Zn2+ + 2OH- + L- = ZnOH2L- ([1]; 0.30 M NaCl, T = 298.1 K): -13.21±0.07
log β, Zn2+ + L = ZnL (1:1) ([1]; 0.30 M NaCl, T = 298.1 K): 5.01±0.03
log β, Zn2+ + OH- + L- = ZnOHL ([1]; 0.30 M NaCl, T = 298.1 K): -4.22±0.08
log β, Zn2+ + 2L = ZnL2 ([1]; 0.70 M NaCl, T = 298.1 K): 8.79±0.01
log β, Zn2+ + 2OH- + L- = ZnOH2L- ([1]; 0.70 M NaCl, T = 298.1 K): -14.07±0.02
log β, Zn2+ + L = ZnL (1:1) ([1]; 0.70 M NaCl, T = 298.1 K): 4.87±0.01
log β, Zn2+ + OH- + L- = ZnOHL ([1]; 0.70 M NaCl, T = 298.1 K): -4.07±0.02
stability of the 1:1 zinc(II) species below/above the equivalent PYR and GLY complexes ([1]; 1:1 zinc(II) complex): 3.5–4 logβ units
log β, Zn2+ + 2L = ZnL2 ([1]; 1.00 M NaCl, T = 298.1 K): 8.79±0.01
log β, Zn2+ + 2OH- + L- = ZnOH2L- ([1]; 1.00 M NaCl, T = 298.1 K): -13.96±0.01
log β, Zn2+ + L = ZnL (1:1) ([1]; 1.00 M NaCl, T = 298.1 K): 4.82±0.01
log β, Zn2+ + OH- + L- = ZnOHL ([1]; 1.00 M NaCl, T = 298.1 K): -4.41±0.04
decrease of the 1:1 zinc(II) stability constant ([1]; between 0.00 and 1.00 M NaCl): 0.79 logβ units
decrease of the 1:1 zinc(II) stability constant ([1]; between 0.05 and 1.00 M NaCl): 14%
logβ0, Zn2+ + 2L = ZnL2 ([1]; intrinsic, modified Extended Debye–Hückel fit (direct), T = 298.1 K): 10.021±0.001
C, Zn2+ + 2L = ZnL2 [1, 5]: -0.052±0.002
C, Zn2+ + 2OH- + L- = ZnOH2L- [1, 5]: 0.571±0.017
C, Zn2+ + OH- + L- = ZnOHL [1, 5]: 1.2095±0.027
log β, H+ + L = HL ([2]; 0.05 M NaCl): 9.28 ± 0.01
log β, H+ + L = HL ([2]; 0.15 M NaCl): 9.06 ± 0.01
log β, H+ + L = HL ([2]; 0.30 M NaCl): 9.10 ± 0.01
log β, H+ + L = HL ([2]; 0.70 M NaCl): 9.04 ± 0.01
log β, H+ + L = HL ([2]; 1.00 M NaCl): 9.07 ± 0.01
logβ^0, H+ + L = HL ([2]; intrinsic, modified Extended Debye–Hückel fit (direct)): 9.376 ± 0.001
C, H+ + L = HL [2, 5]: 0.085 ± 0.001

CC(=O)N(O)CCCCCNC(=O)CCC(=O)N(O)CCCCCNC(=O)CCC(=O)N(O)CCCCCN [DFOB, desferrioxamine B]
log β, Zn2+ + 2H+ + L3- = ZnH2L+ ([3]; 0.05 M NaCl, T = 298.1 K): 29.30±0.13
log β, Zn2+ + H+ + L3- = ZnHL ([3]; 0.05 M NaCl, T = 298.1 K): 21.55±0.11
log β, Zn2+ + L3- = ZnL- ([3]; 0.05 M NaCl, T = 298.1 K): 11.67±0.06
log β, Zn2+ + 2H+ + L3- = ZnH2L+ ([3]; 0.15 M NaCl, T = 298.1 K): 27.81±0.05
log β, Zn2+ + H+ + L3- = ZnHL ([3]; 0.15 M NaCl, T = 298.1 K): 19.85±0.04
log β, Zn2+ + L3- = ZnL- ([3]; 0.15 M NaCl, T = 298.1 K): 9.91±0.02
log β, Zn2+ + 2H+ + L3- = ZnH2L+ ([3]; 0.30 M NaCl, T = 298.1 K): 27.42±0.08
log β, Zn2+ + H+ + L3- = ZnHL ([3]; 0.30 M NaCl, T = 298.1 K): 19.85±0.06
log β, Zn2+ + L3- = ZnL- ([3]; 0.30 M NaCl, T = 298.1 K): 9.97±0.04
log β, Zn2+ + 2H+ + L3- = ZnH2L+ ([3]; 0.70 M NaCl, T = 298.1 K): 27.19±0.12
log β, Zn2+ + H+ + L3- = ZnHL ([3]; 0.70 M NaCl, T = 298.1 K): 19.34±0.09
log β, Zn2+ + L3- = ZnL- ([3]; 0.70 M NaCl, T = 298.1 K): 9.39±0.05
log β, Zn2+ + 2H+ + L3- = ZnH2L+ ([3]; 1.00 M NaCl, T = 298.1 K): 27.25±0.08
log β, Zn2+ + H+ + L3- = ZnHL ([3]; 1.00 M NaCl, T = 298.1 K): 19.38±0.06
log β, Zn2+ + L3- = ZnL- ([3]; 1.00 M NaCl, T = 298.1 K): 9.32±0.04
decrease of the 1:1 zinc(II) stability constant ([3]; between 0.05 and 1.00 M NaCl): 21%
logβ0, Zn2+ + 2H+ + L3- = ZnH2L+ ([3]; intrinsic, T = 298.1 K): 29.872±0.027
logβ0, Zn2+ + H+ + L3- = ZnHL ([3]; intrinsic, T = 298.1 K): 22.105±0.026
logβ0, Zn2+ + L3- = ZnL- ([3]; intrinsic, T = 298.1 K): 12.027±0.039
C, Zn2+ + 2H+ + L3- = ZnH2L+ [3, 6]: 0.009±0.051
C, Zn2+ + H+ + L3- = ZnHL [3, 6]: -0.075±0.053
C, Zn2+ + L3- = ZnL- [3, 6]: -0.486±0.077
log β, 2H+ + L3− = H2L− ([4]; 0.05 M NaCl, T = 298.1 K): 20.94 ± 0.09
log β, 3H+ + L3− = H3L ([4]; 0.05 M NaCl, T = 298.1 K): 30.05 ± 0.12
log β, 4H+ + L3− = H4L+ ([4]; 0.05 M NaCl, T = 298.1 K): 38.83 ± 0.14
log β, H+ + L3− = HL2− ([4]; 0.05 M NaCl, T = 298.1 K): 11.07 ± 0.07
log β, 2H+ + L3− = H2L− ([4]; 0.15 M NaCl, T = 298.1 K): 20.25 ± 0.06
log β, 3H+ + L3− = H3L ([4]; 0.15 M NaCl, T = 298.1 K): 29.10 ± 0.09
log β, 4H+ + L3− = H4L+ ([4]; 0.15 M NaCl, T = 298.1 K): 37.46 ± 0.13
log β, H+ + L3− = HL2− ([4]; 0.15 M NaCl, T = 298.1 K): 10.74 ± 0.04
log β, 2H+ + L3− = H2L− ([4]; 0.30 M NaCl, T = 298.1 K): 19.84 ± 0.04
log β, 3H+ + L3− = H3L ([4]; 0.30 M NaCl, T = 298.1 K): 28.61 ± 0.07
log β, 4H+ + L3− = H4L+ ([4]; 0.30 M NaCl, T = 298.1 K): 37.00 ± 0.10
log β, H+ + L3− = HL2− ([4]; 0.30 M NaCl, T = 298.1 K): 10.36 ± .02
log β, 2H+ + L3− = H2L− ([4]; 0.70 M NaCl, T = 298.1 K): 19.77 ± 0.04
log β, 3H+ + L3− = H3L ([4]; 0.70 M NaCl, T = 298.1 K): 28.60 ± 0.08
log β, 4H+ + L3− = H4L+ ([4]; 0.70 M NaCl, T = 298.1 K): 36.97 ± 0.16
log β, H+ + L3− = HL2− ([4]; 0.70 M NaCl, T = 298.1 K): 10.35 ± 0.02
log β, 2H+ + L3− = H2L− ([4]; 1.00 M NaCl, T = 298.1 K): 19.77 ± 0.08
log β, 3H+ + L3− = H3L ([4]; 1.00 M NaCl, T = 298.1 K): 28.57 ± 0.12
log β, 4H+ + L3− = H4L+ ([4]; 1.00 M NaCl, T = 298.1 K): 36.92 ± 0.14
log β, H+ + L3− = HL2− ([4]; 1.00 M NaCl, T = 298.1 K): 10.14 ± 0.06
logβ^0, 2H+ + L3− = H2L− ([4]; intrinsic, T = 298.1 K): 21.530 ± 0.006
logβ^0, 3H+ + L3− = H3L ([4]; intrinsic, T = 298.1 K): 30.691 ± 0.012
logβ^0, 4H+ + L3− = H4L+ ([4]; intrinsic, T = 298.1 K): 39.250 ± 0.023
logβ^0, H+ + L3− = HL2− ([4]; intrinsic, T = 298.1 K): 11.491 ± 0.003
C, 3H+ + L3− = H3L [4, 6]: 0.194 ± 0.012
